Measurements reported in ChEMBL document CHEMBL3400114, “The design, synthesis and biological evaluation of conformationally restricted 4-substituted-2,6-dimethylfuro[2,3-d]pyrimidines as multi-targeted receptor tyrosine kinase and microtubule inhibitors as potential antitumor agents” (Bioorg Med Chem, 2015).

What was measured:
A-431 = test: Antiproliferative activity against human A431 cells after 48 hrs by sulforhodamine B assay; format: functional, cell-based; settings: A-431, 48 h
[1] = Induction of microtubule depolymerization in rat A10 cells after 18 hrs by indirect immunofluorescence assay; format: cell-based
[2] = Antiangiogenic activity in VEGF-165 and bFGF-stimulated chicken embryo chorioallantoic membrane assessed as inhibition of blood vessel formation after 40 hrs by microscopy; format: functional, tissue-based, Gallus gallus
NCI-H522 = test: Growth inhibition of human NCI-H522 cells after 48 hrs by sulforhodamine B assay; format: functional; settings: NCI-H522, 48 h
K562 = test: Growth inhibition of human K562 cells after 48 hrs by sulforhodamine B assay; format: functional; settings: K562, 48 h
SK-MEL-5 = test: Growth inhibition of human SK-MEL-5 cells after 48 hrs by sulforhodamine B assay; format: functional; settings: SK-MEL-5, 48 h
[3] = Growth inhibition of human UACC62 cells after 48 hrs by sulforhodamine B assay; format: functional; settings: UACC-62, 48 h
SR = test: Growth inhibition of human SR cells after 48 hrs by sulforhodamine B assay; format: functional
HOP-62 = test: Growth inhibition of human HOP62 cells after 48 hrs by sulforhodamine B assay; format: functional; settings: HOP-62, 48 h
SK-OV-3 [4] = test: Growth inhibition of human SKOV3 cells after 48 hrs by sulforhodamine B assay; format: functional; settings: SK-OV-3, 48 h
SW-620 = test: Growth inhibition of human SW620 cells after 48 hrs by sulforhodamine B assay; format: functional; settings: SW-620, 48 h
NCI-H226 = test: Growth inhibition of human NCI-H226 cells after 48 hrs by sulforhodamine B assay; format: functional; settings: NCI-H226, 48 h
[5] = Growth inhibition of human HCT116 cells after 48 hrs by sulforhodamine B assay; format: functional; settings: HCT-116, 48 h
[6] = Growth inhibition of human OVCAR8 cells after 48 hrs by sulforhodamine B assay; format: functional; settings: OVCAR-8, 48 h
MDA-MB-468 = test: Growth inhibition of human MDA-MB-468 cells after 48 hrs by sulforhodamine B assay; format: functional; settings: MDA-MB-468, 48 h
SNB-75 = test: Growth inhibition of human SNB75 cells after 48 hrs by sulforhodamine B assay; format: functional; settings: SNB-75, 48 h
MCF7 = test: Growth inhibition of human MCF7 cells after 48 hrs by sulforhodamine B assay; format: functional; settings: MCF7, 48 h
[7] = Growth inhibition of human UO31 cells after 48 hrs by sulforhodamine B assay; format: functional; settings: UO-31, 48 h
HeLa [8] = test: Resistance ratio of IC50 for human HeLa cells overexpressing wild type beta3 tubulin to IC50 for human HeLa cells; format: functional
HT-29 = test: Growth inhibition of human HT-29 cells after 48 hrs by sulforhodamine B assay; format: functional; settings: HT-29, 48 h
MDA-MB-435 [9] = test: Antiproliferative activity against human MDA-MB-435 cells after 48 hrs by sulforhodamine B assay; format: functional, cell-based; settings: MDA-MB-435, 48 h
NCI/ADR-RES = test: Growth inhibition of human NCI/ADR-RES cells after 48 hrs by sulforhodamine B assay; format: functional
[10] = Ratio of EC50 for microtubule depolymerization in rat A10 cells to IC50 for human MDA-MB-435 cells
HL-60(TB) = test: Growth inhibition of human HL-60(TB) cells after 48 hrs by sulforhodamine B assay; format: functional; settings: HL-60, 48 h
NCI-H23 = test: Growth inhibition of human NCI-H23 cells after 48 hrs by sulforhodamine B assay; format: functional; settings: NCI-H23, 48 h
[11] = Antiproliferative activity against human SKOV3 cells overexpressing wild type beta3 tubulin after 48 hrs by sulforhodamine B assay; format: functional, cell-based; settings: SK-OV-3, 48 h
KM12 = test: Growth inhibition of human KM12 cells after 48 hrs by sulforhodamine B assay; format: functional; settings: KM12, 48 h
SK-OV-3 [12] = test: Resistance ratio of IC50 for human SKOV3-MDR1-M6/6 cells to IC50 for human SKOV3 cells; format: functional
CAKI-1 = test: Growth inhibition of human Caki1 cells after 48 hrs by sulforhodamine B assay; format: functional; settings: CAKI-1, 48 h
[13] = Growth inhibition of human […] cells after 48 hrs by sulforhodamine B assay; format: functional
[14] = Growth inhibition of human SF539 cells after 48 hrs by sulforhodamine B assay; format: functional; settings: SF-539, 48 h
[15] = Growth inhibition of human Hs 578T cells after 48 hrs by sulforhodamine B assay; format: functional
[16] = Growth inhibition of human COLO205 cells after 48 hrs by sulforhodamine B assay; format: functional; settings: COLO 205, 48 h
IGROV-1 = test: Growth inhibition of human IGROV1 cells after 48 hrs by sulforhodamine B assay; format: functional; settings: IGROV-1, 48 h
[17] = Growth inhibition of human EKVX cells after 48 hrs by sulforhodamine B assay; format: functional
[18] = Growth inhibition of human MOLT4 cells after 48 hrs by sulforhodamine B assay; format: functional; settings: MOLT-4, 48 h
MDA-MB-435 [19] = test: Growth inhibition of human MDA-MB-435 cells after 48 hrs by sulforhodamine B assay; format: functional; settings: MDA-MB-435, 48 h
SF-268 = test: Growth inhibition of human SF268 cells after 48 hrs by sulforhodamine B assay; format: functional; settings: SF-268, 48 h
[20] = Antiproliferative activity against human SKOV3-MDR1-M6/6 cells overexpressing wild type beta3 tubulin after 48 hrs by sulforhodamine B assay; format: functional, cell-based; settings: SKOV3-MDR1-M6/6, 48 h
[21] = Growth inhibition of human PC3 cells after 48 hrs by sulforhodamine B assay; format: functional; settings: PC-3, 48 h
[22] = Growth inhibition of human HCC2998 cells after 48 hrs by sulforhodamine B assay; format: functional; settings: HCC 2998, 48 h
[23] = Growth inhibition of human HOP92 cells after 48 hrs by sulforhodamine B assay; format: functional; settings: HOP-92, 48 h
TK-10 = test: Growth inhibition of human TK10 cells after 48 hrs by sulforhodamine B assay; format: functional; settings: TK-10, 48 h
SN12C = test: Growth inhibition of human SN12C cells after 48 hrs by sulforhodamine B assay; format: functional
CCRF-CEM = test: Growth inhibition of human CCRF-CEM cells after 48 hrs by sulforhodamine B assay; format: functional
SK-MEL-2 = test: Growth inhibition of human SK-MEL-2 cells after 48 hrs by sulforhodamine B assay; format: functional; settings: SK-MEL-2, 48 h
[24] = Growth inhibition of human OVCAR5 cells after 48 hrs by sulforhodamine B assay; format: functional; settings: OVCAR-5, 48 h
[25] = Growth inhibition of human OVCAR4 cells after 48 hrs by sulforhodamine B assay; format: functional; settings: OVCAR-4, 48 h
M14 = test: Growth inhibition of human M14 cells after 48 hrs by sulforhodamine B assay; format: functional; settings: M14, 48 h
[26] = Growth inhibition of human RXF393 cells after 48 hrs by sulforhodamine B assay; format: functional; settings: RXF 393, 48 h
[27] = Growth inhibition of human BT549 cells after 48 hrs by sulforhodamine B assay; format: functional; settings: BT-549, 48 h
DU-145 = test: Growth inhibition of human DU145 cells after 48 hrs by sulforhodamine B assay; format: functional; settings: DU-145, 48 h
NCI-H460 = test: Growth inhibition of human NCI-H460 cells after 48 hrs by sulforhodamine B assay; format: functional; settings: NCI-H460, 48 h
[28] = Growth inhibition of human SF295 cells after 48 hrs by sulforhodamine B assay; format: functional; settings: SF-295, 48 h
[29] = Growth inhibition of human LOXIMVI cells after 48 hrs by sulforhodamine B assay; format: functional; settings: LOX IMVI
U-251 = test: Growth inhibition of human U251 cells after 48 hrs by sulforhodamine B assay; format: functional; settings: U-251, 48 h
[30] = Growth inhibition of human HCT15 cells after 48 hrs by sulforhodamine B assay; format: functional; settings: HCT-15, 48 h
786-0 = test: Growth inhibition of human 786-0 cells after 48 hrs by sulforhodamine B assay; format: functional; settings: 786-0, 48 h
ACHN = test: Growth inhibition of human ACHN cells after 48 hrs by sulforhodamine B assay; format: functional
MDA-MB-231 = test: Growth inhibition of human MDA-MB-231 cells after 48 hrs by sulforhodamine B assay; format: functional; settings: MDA-MB-231, 48 h
SNB-19 = test: Growth inhibition of human SNB19 cells after 48 hrs by sulforhodamine B assay; format: functional; settings: SNB-19, 48 h
[31] = Growth inhibition of human OVCAR3 cells after 48 hrs by sulforhodamine B assay; format: functional; settings: OVCAR-3, 48 h
HeLa [32] = test: Antiproliferative activity against human HeLa cells overexpressing wild type beta3 tubulin after 48 hrs by sulforhodamine B assay; format: functional, cell-based

Cc1nc(N(C)c2ccc3c(c2)OCO3)c2cc(C)oc2n1
IC50 (A-431): 0.0489 µM
EC50 [1]: > 10 µM
IC50 [2]: 38.2 µM

Cc1nc(N(C)c2ccc3occc3c2)c2cc(C)oc2n1
GI50 (NCI-H522): 0.0299 µM
GI50 (K562): 0.0404 µM
IC50 (A-431): 0.0732 µM
GI50 (SK-MEL-5): 0.0504 µM
GI50 [3]: 0.0571 µM
GI50 (SR): 0.0624 µM
GI50 (HOP-62): 0.0752 µM
GI50 (SK-OV-3 [4]): 0.098 µM
GI50 (SW-620): 0.0588 µM
GI50 (NCI-H226): 0.217 µM
GI50 [5]: 0.0771 µM
GI50 [6]: 0.33 µM
GI50 (MDA-MB-468): 0.0315 µM
GI50 (SNB-75): 0.103 µM
GI50 (MCF7): 0.0438 µM
GI50 [7]: 0.278 µM
Ratio IC50 (HeLa [8]): 0.8
GI50 (HT-29): 0.0519 µM
IC50 (MDA-MB-435 [9]): 0.133 µM
GI50 (NCI/ADR-RES): 0.0376 µM
Ratio [10]: 28
GI50 (HL-60(TB)): 0.0412 µM
GI50 (NCI-H23): 0.206 µM
IC50 [11]: 0.425 µM
EC50 [1]: 3.79 µM
GI50 (KM12): 0.0584 µM
Ratio IC50 (SK-OV-3 [12]): 1.2
GI50 (CAKI-1): 0.0579 µM
GI50 [13]: 0.389 µM
GI50 [14]: 0.0609 µM
GI50 [15]: 0.0517 µM
GI50 [16]: 0.139 µM
GI50 (IGROV-1): 0.142 µM
GI50 [17]: 0.396 µM
GI50 [18]: 0.211 µM
GI50 (MDA-MB-435 [19]): 0.0211 µM
GI50 (SF-268): 0.527 µM
IC50 [20]: 0.509 µM
GI50 [21]: 0.183 µM
GI50 [22]: 0.185 µM
GI50 [23]: 0.226 µM
GI50 (TK-10): 0.382 µM
GI50 (SN12C): 0.611 µM
GI50 (CCRF-CEM): 0.121 µM
GI50 (SK-MEL-2): 0.0824 µM
GI50 [24]: 0.531 µM
GI50 [25]: 0.553 µM
GI50 (M14): 0.0473 µM
GI50 [26]: 0.0572 µM
GI50 [27]: 0.432 µM
GI50 (DU-145): 0.198 µM
GI50 (NCI-H460): 0.138 µM
GI50 [28]: 0.0417 µM
GI50 [29]: 0.162 µM
GI50 (U-251): 0.084 µM
GI50 [30]: 0.0519 µM
GI50 (786-0): 1.04 µM
GI50 (ACHN): 0.265 µM
GI50 (MDA-MB-231): 0.223 µM
GI50 (SNB-19): 0.0936 µM
IC50 [2]: 15.2 µM
GI50 [31]: 0.03 µM
IC50 (HeLa [32]): 0.243 µM
